# Several values for one entry are separate records, joined by “and”; a condition that tells them apart may be missing. Identical values can stand only once. Counter-ions that a name gives are not always drawn. Like-named read-outs stand apart in the source and are kept apart here.
# Assays:
# [1] = tested on: adult human primary ventricular myocytes; assay: Cardiotoxicity (pro-arrhythmia) assay in adult human primary cardiomyocytes; assay type: cell-based; details: for pro-arrhythmic potential: 0.1–10 µM
# rat NMDA receptor = assay: rat NMDA radioligand displacement ([3H]MK-801); assay type: binding
# male Fisher F-344 rats = assay: Morphine intravenous self-administration; assay type: in vivo, rat; details: for self-administration per session, individual animals (Fig. S9a): 40 mg/kg
# hKOR [2] = molecular target: T1, hKOR (Homo sapiens, UniProt P41145); assay: Nanobody Nb33 sensor recruitment BRET assay; assay type: cell-based
# T1 construct: expressed in transfected cells; host or cells: HEK-293T, transient (PEI)
# [3] = Noribogaine clinical dose escalation data (plasma concentration, QT); assay type: in vivo; details: from reported clinical total plasma concentrations and own human plasma protein binding
# rKOR = molecular target: T2, rKOR (Rattus norvegicus, UniProt P34975); assay: G protein activation BRET assay (GαoB); assay type: cell-based; details: for EC50: HEK-293T
# T2 construct: signal peptide (N); expressed in transfected cells; host or cells: HEK-293T, transient (PEI)
# [4] = molecular target: T3, human nicotinic acetylcholine receptor (nAChR α3β4) (Homo sapiens, UniProt P30926+P32297); assay: nAChR α3β4 inhibition, electrophysiology (commercial); assay type: cell-based
# T3 construct: purchased contracted research organization (eurofinsdiscoveryservices.com) item CYL8057IF2
# h5-HT2A = h5-HT2A (Homo sapiens, UniProt P28223); assay: IP1 functional assay, agonist; assay type: cell-based; details: up to 10 µM
# hKOR [5] = molecular target: T1, hKOR; assay: KOR [35S]GTPγS agonist assay (commercial); assay type: biochemical; details: agonist, n = 1
# [6] = Pharmacokinetic study in mice (plasma and brain), with estimated free drug concentrations; assay type: in vivo, mouse; details: mice, 10 mg/kg s.c., individual animals, 10 mg/kg
# T2 sequence (P34975 whole entry): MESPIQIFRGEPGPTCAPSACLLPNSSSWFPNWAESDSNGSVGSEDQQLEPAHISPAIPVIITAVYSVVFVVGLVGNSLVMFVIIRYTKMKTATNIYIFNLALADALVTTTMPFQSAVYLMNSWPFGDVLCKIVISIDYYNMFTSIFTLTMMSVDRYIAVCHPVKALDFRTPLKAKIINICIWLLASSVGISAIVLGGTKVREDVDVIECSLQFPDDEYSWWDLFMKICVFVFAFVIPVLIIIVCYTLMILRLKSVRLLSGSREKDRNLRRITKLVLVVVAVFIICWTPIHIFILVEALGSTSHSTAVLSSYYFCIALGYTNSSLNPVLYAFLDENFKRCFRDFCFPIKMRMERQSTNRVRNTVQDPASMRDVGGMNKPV
# T1 sequence (P41145 whole entry): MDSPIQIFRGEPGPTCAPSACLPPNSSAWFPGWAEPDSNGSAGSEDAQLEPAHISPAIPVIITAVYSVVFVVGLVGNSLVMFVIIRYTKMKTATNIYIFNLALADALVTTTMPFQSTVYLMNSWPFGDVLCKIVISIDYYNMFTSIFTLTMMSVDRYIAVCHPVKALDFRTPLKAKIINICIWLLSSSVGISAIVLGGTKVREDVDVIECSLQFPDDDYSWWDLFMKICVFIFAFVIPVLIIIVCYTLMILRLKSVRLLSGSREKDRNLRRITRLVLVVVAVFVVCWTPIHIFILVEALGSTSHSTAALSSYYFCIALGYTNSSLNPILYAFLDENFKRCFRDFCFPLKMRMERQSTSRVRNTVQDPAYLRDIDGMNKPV
# T3 sequence (P32297 32-505): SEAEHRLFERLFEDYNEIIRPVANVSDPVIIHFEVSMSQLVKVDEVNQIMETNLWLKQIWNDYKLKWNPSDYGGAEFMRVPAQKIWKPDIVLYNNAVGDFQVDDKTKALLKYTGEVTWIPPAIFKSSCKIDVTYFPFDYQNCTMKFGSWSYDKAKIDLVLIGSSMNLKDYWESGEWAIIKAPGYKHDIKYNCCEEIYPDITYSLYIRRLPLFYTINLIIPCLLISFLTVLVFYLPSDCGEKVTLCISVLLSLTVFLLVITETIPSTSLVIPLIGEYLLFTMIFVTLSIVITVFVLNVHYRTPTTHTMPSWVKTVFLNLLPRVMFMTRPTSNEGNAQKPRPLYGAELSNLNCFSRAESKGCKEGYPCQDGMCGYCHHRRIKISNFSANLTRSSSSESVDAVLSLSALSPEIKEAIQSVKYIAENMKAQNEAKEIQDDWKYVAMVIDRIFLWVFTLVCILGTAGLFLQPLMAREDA
# T3 sequence (P30926 22-498): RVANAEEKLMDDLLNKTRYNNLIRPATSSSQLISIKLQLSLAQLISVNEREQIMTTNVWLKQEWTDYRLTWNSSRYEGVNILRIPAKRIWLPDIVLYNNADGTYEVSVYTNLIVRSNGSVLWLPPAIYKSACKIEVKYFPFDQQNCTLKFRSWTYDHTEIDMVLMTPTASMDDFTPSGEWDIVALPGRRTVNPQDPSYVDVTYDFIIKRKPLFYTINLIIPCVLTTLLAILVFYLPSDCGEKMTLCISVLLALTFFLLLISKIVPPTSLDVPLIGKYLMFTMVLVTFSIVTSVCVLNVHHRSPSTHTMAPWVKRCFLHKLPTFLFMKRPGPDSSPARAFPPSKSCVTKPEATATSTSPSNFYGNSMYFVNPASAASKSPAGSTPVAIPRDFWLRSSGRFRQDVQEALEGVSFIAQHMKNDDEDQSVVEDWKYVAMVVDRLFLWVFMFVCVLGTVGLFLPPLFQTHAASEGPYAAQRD
# h5-HT2A, sequence (P28223 whole entry): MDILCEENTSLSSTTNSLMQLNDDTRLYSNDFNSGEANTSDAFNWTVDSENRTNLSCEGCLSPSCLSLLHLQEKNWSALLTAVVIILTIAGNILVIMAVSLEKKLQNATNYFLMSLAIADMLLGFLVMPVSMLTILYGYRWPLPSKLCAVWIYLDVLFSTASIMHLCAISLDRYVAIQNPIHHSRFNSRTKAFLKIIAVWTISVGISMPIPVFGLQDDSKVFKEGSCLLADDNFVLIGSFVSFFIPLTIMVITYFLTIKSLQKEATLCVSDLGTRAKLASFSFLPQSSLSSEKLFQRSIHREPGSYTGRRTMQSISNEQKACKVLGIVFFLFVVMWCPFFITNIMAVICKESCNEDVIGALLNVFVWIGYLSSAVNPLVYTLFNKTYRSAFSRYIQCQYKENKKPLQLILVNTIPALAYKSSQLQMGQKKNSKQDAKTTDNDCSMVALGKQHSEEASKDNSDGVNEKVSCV
smiles,measurement,setting,value
"CCC1CC2CC3c4[nH]c5ccc(O)cc5c4CCN(C2)C13 (stereo not shown) [Noribogaine, Noribogaine hydrochloride]",concentration with greater than 20% incidence of arrhythmia-associated events (considerable pro-arrhythmia risk),[1],≥ 1000 nM
same,Alternans %,[1]; 0.1 (µM),0%
same,Contraction Failure %,[1]; 0.1 (µM),0%
same,STV %,[1]; 0.1 (µM),0%
same,After-contraction %,"[1]; 0.1 (µM), incidence of cells",16.67%
same,pro-arrhythmic potential,[1],pro-arrhythmic potential by causing after-contractions and contraction failures
same,pro-arrhythmic potential,[1]; listed as noribogaine,concentration-dependent pro-arrhythmia risk
same,After-contraction %,[1]; 1 (µM),33.33%
same,Alternans %,[1]; 1 (µM),0%
same,Contraction Failure %,[1]; 1 (µM),0%
same,STV %,[1]; 1 (µM),0%
same,After-contraction %,[1]; 3.16 (µM),50%
same,Alternans %,[1]; 3.16 (µM),0%
same,Contraction Failure %,[1]; 3.16 (µM),16.67%
same,STV %,[1]; 3.16 (µM),0%
same,After-contraction %,[1]; 10 (µM),50%
same,Alternans %,[1]; 10 (µM),0%
same,Contraction Failure %,[1]; 10 (µM),16.67%
same,STV %,[1]; 10 (µM),0%
same,IC50,rat NMDA receptor,42 µM
same,"NMDA receptor radioligand displacement, concentration-response point (Fig. S3c)",rat NMDA receptor; 1.00E-04 M,73
same,"NMDA receptor radioligand displacement, concentration-response point (Fig. S3c)",rat NMDA receptor; 1.00E-05 M,14
same,"NMDA receptor radioligand displacement, concentration-response point (Fig. S3c)",rat NMDA receptor; 1.00E-06 M,5
same,"NMDA receptor radioligand displacement, concentration-response point (Fig. S3c)",rat NMDA receptor; 2.15E-05 M,32
same,"NMDA receptor radioligand displacement, concentration-response point (Fig. S3c)",rat NMDA receptor; 4.64E-05 M,53
same,IC50,"rat NMDA receptor; [3H]MK-801 displacement, n = 1",42.2 µM
same,effect on morphine self-administration,male Fisher F-344 rats; 40 mg/kg i.p.,"partial, but statistically significant, suppression of morphine intake on days 2 and 3, returning to pre-treatment level of morphine intake on day 5"
same,"self-administration per session, individual animals (Fig. S9a)",male Fisher F-344 rats; session 1,0 (2×) and 4 (2×) and 8 and 6 (2×) and 2
same,"self-administration per session, individual animals (Fig. S9a)",male Fisher F-344 rats; session 2,7 and 19 and 24 and 41 and 27 (2×) and 15 (2×)
same,"self-administration per session, individual animals (Fig. S9a)",male Fisher F-344 rats; session 3,17 and 21 and 50 and 28
same,"self-administration per session, individual animals (Fig. S9a)",male Fisher F-344 rats; session 5,49 and 40 and 50 (2×) and 36 (2×) and 31 and 21
same,"self-administration per session, individual animals (Fig. S9a)",male Fisher F-344 rats; session 6,50 (5×) and 42 and 26 and 19
same,"self-administration per session, individual animals (Fig. S9a)",male Fisher F-344 rats; session 7,29 (2×) and 15 and 50 (4×) and 17
same,"self-administration per session, individual animals (Fig. S9a)",male Fisher F-344 rats; session 8,30 (2×) and 50 (4×) and 28 and 26
same,"self-administration per session, individual animals (Fig. S9a)",male Fisher F-344 rats; session 9,26 and 35 and 50 (3×) and 22 and 28 and 13
same,"self-administration per session, individual animals (Fig. S9a)",male Fisher F-344 rats; session 10,34 and 25 and 50 (3×) and 20 and 41 and 14
same,"self-administration per session, individual animals (Fig. S9a)",male Fisher F-344 rats; session 11,33 and 19 and 50 (3×) and 9 and 26 and 3
same,"self-administration per session, individual animals (Fig. S9a)",male Fisher F-344 rats; session 12,50 (5×) and 14 and 40 and 19
same,"self-administration per session, individual animals (Fig. S9a)",male Fisher F-344 rats; session 13,50 (3×) and 23 and 33 and 28
same,"self-administration per session, individual animals (Fig. S9a)",male Fisher F-344 rats; session 14,50 (3×) and 21 and 38 and 17
same,"self-administration per session, individual animals (Fig. S9a)",male Fisher F-344 rats; session 15,50
same,% effect at 100 µM,hKOR [2],< 3%
same,estimated free plasma noribogaine Cmax,"[3]; 60 mg oral dose, mild QT effect",approximately 100 nM
same,estimated free plasma noribogaine Cmax,[3]; 180 mg oral dose,300 to 400 nM
same,EC50,rKOR,6.1 µM
same,EC50,rKOR; (95% CI),6.24 µM
same,Emax,"rKOR; normalized to Emax of U-50,488",52%
same,IC50,[4],5 µM
same,IC50,"[4]; electrophysiology, n = 1, (95% CI)",4.96 µM
same,agonist activity at h5-HT2R,h5-HT2A,No agonist activity
same,Emax,hKOR [5],73%
same,EC50,hKOR [5]; (95% CI),8.33 µM
same,Brain Concentration (total),[6]; 0.083 h,6610 nM and 8950 nM
same,Free Brain Concentration,[6]; 0.083 h,780 nM and 1057 nM
same,Free Plasma Concentration,[6]; 0.083 h,2258 nM and 2308 nM and 1083 nM
same,Plasma Concentration (total),[6]; 0.083 h,4830 nM and 2260 nM and 4720 nM
same,Brain Concentration (total),[6]; 0.25 h,14100 nM and 14820 nM
same,Free Brain Concentration,[6]; 0.25 h,1664 nM and 1749 nM
same,Free Plasma Concentration,[6]; 0.25 h,2314 nM and 3247 nM
same,Plasma Concentration (total),[6]; 0.25 h,6790 nM and 6100 nM
same,Brain Concentration (total),[6]; 0.5 h,18560 nM and 18390 nM
same,Free Brain Concentration,[6]; 0.5 h,2190 nM and 2170 nM
same,Free Plasma Concentration,[6]; 0.5 h,2561 nM and 3671 nM
same,Plasma Concentration (total),[6]; 0.5 h,7680 nM and 6990 nM
